In patent US10316008B2, “KCNQ potassium channel agonist, and preparation method therefor and use thereof” (SHANGHAI INSTITUTE OF MATERIA MEDICA, CHINESE ACADEMY OF …, priority 2014, dated 2019):
Counter-ions that a name gives are not always drawn.

How the values were obtained:
[1] = molecular target: T1, KCNQ2/3 heterotetramer channel (Homo sapiens, UniProt O43525+O43526); assay: KCNQ2/3 heterotetramer channel dose-response curve in CHO-K1 cells cotransfected with KCNQ2 and KCNQ3 plasmids; assay type: cell-based
T1 construct: expressed in transfected cells; host or cells: CHO-K1
Description: (§1) The culture medium for Chinese hamster oocytes (CHO-K1) (Culture Collection of Chinese Academy of Sciences): 50/50 DMEM/F-12 (Cellgro, Manassas, Va.), added with 10% fetal bovine serum (FBS) (Gibco, Australia) and 2 mM L-glutamic acid (Invitrogen). Expression of KCNQ channels: 24 h before transfection, CHO-K1 spreaded on a dish with a diameter of 60 mm. Lipofectamine 2000™ agent (Invitrogen) was used for Transfection according to the protocol thereof. GFP (green fluorescent protein) was cotransfected to be used as a indication of successful converting into KCNQ plasmid.
(§2) Whole-cell voltage-clamp recording was performed on an Axopatch-200B amplifier (Molecular Devices, Sunnyvale, Calif.) at room temperature. The electrode was made by drawing borosilicate glass capillary (World Precision Instruments, Sarasota, Fla.). The electric resistance of the electrode filled with an intracellular fluid is 3 to 5 MΩ. The composition of the intracellular fluid (1 L) was as follows: 145 mM KCl(Sigma), 1 mM MgCl2(Sigma), 5 mM EGTA(Sigma), 10 mM HEPES(Sigma) and 5 mM MgATP(Sigma) (pH was adjusted to 7.3 with KOH). During the recording, an extracellular fluid was continuously perfused by using a BPS perfusion system (ALA Scientific Instruments, Westburg, N.Y.). The composition of the extracellular fluid (1 L) was as follows: 140 mM NaCl(Sigma), 5 mM KCl(Sigma), 2 mM CaCl2(Sigma), 1.5 mM MgCl2(Sigma), 10 mM HEPES(Sigma) and 10 mM glucose(Sigma) (pH was adjusted to 7.4 with NaOH). Electric signal was filtered at 1 kHz and further converted into digital signal by using pClamp 9.2 software (Molecular Devices, Sunnyvale, Calif.) in DigiData 1322A. Series resistors compensate 60 to 80%. Up to date, multivoltage scheme was generally adopted, wherein the clamp voltage was set at −80 mV, stimulating voltage was a gradient voltage from −90 mV to 60 mV with interval of 10 mV, and the stimulating time for each voltage was 2000 ms.
The experimental procedure was the same as that in Electrophysiological Example 1. […]

[2] = test system: KCNQ potassium channel; assay: Whole-cell voltage-clamp recording in CHO-K1 cells transfected with KCNQ plasmid; assay type: cell-based; details: for I/I0: current enhancement factor, −10 mV testing voltage, compound concentration 10 μM, >1 activating, <1 inhibiting; for ΔV1/2: shift of V1/2, negative sign = left-ward shift of current activation curve, compound 10 μM, CHO-K1 cells
Description: as §1, with “Expression of KCNQ channels: 24 h before transfection, CHO-K1 spreaded on a dish with a diameter of 60 mm.” left out
as §2, with “The composition of the intracellular fluid (1 L) was as follows: 145 mM KCl(Sigma), 1 mM MgCl2(Sigma), 5 mM EGTA(Sigma), 10 mM HEPES(Sigma) and 5 mM MgATP(Sigma) (pH was adjusted to 7.3 with KOH).” left out, “Electric signal was filtered at 1 kHz and further converted into digital signal by using pClamp 9.2 software (Molecular Devices, Sunnyvale, Calif.) in DigiData 1322A.” left out
V1/2 is the voltage at which 50% of cells were activated, ΔV1/2 is the shift amount of V1/2, negative sign (−) represents a left-ward shift of the current activation curve. I/I0 represents the current enhancement factor, wherein, I0 is the maximum induced current produced under stimulation of −10 mV testing voltage after administrating cells with blank extracellular fluid, I is the maximum induced current produced under stimulation of −10 mV testing voltage after administrating the drug (the compound concentration was 10 μM), I/I0>1 represents activating activity, and I/I0<1 represents inhibiting activity. N is the number of tested cells. NT represents non-tested.

SMILES	EC50 ([1]; FIG. 2, Boltzmann fit) [nM]	agonistic activity on KCNQ2/3 heterotetramer channel relative to K21 ([1]; fold of K21) [times]	agonistic activity on KCNQ2/3 heterotetramer channel relative to RTG ([1]; fold of RTG) [times]	I/I0 [2]	ΔV1/2 [2] [mV]
C#CCN(Cc1ccc(F)cc1)c1cc(C)c(NC(=O)OC)c(C)c1 [Compound K43, methyl 4-(N-parafluorobenzyl-N-propargyl-amino)-2,6-dimethylphenylaminoformate]	49	≥ 20	≥ 30		
C#CCN(Cc1ccc(F)cc1)c1cc(C)c(NC(=O)OC)c(C)c1.Cl [K43•HCl, methyl 4-(N-parafluorobenzyl-N-propargyl-amino)-2,6-dimethylphenylaminoformate hydrochloride]				4.75 ± 1.29	−38.52 ± 1.67
C#CCN(Cc1ccc(F)cc1)c1ccc(NC(=O)OC)c(C)c1 [K41•HCl]				4.8 ± 0.73	−23.28 ± 1.37
